# Measured values published in patent publication US10131652B2, “Pyrimidinyloxy benzene derivatives as herbicides” (E. I. DU PONT DE NEMOURS AND COMPANY, priority 2014, dated 2018).
# Like-named read-outs stand apart in the source and are kept apart here.
# Experiments:
# Assay type in all cases: in vivo
# [1] = test system: chickweed (common chickweed, Stellaria media); test: Test D postemergence plant response; settings: Stellaria media, post-emergence
# Procedure, shortened: (§1)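 Plants grown in pots of peat moss–vermiculite medium with wetting agent and starter nutrients received postemergence applications of the formulated test chemicals at 2 to 18 cm height (1- to 4-leaf stage). After 13 to 15 days in a greenhouse, injury was scored visually against untreated controls, 0 (no effect) to 100 (complete control).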
# kochia (Kochia scoparia) = test: Test D postemergence plant response; settings: Bassia scoparia, post-emergence
# Procedure, shortened: as §1
# wild oat (Avena fatua) = test: Test D postemergence plant response; settings: Avena fatua, post-emergence
# Procedure, shortened: as §1
# soybean (Glycine max) = test: Test D pre-/postemergence plant response; settings: Glycine max; for plant injury at 16 g/ha: 16 g ai/ha; for plant injury at 31 g/ha: 31 g ai/ha; for plant injury at 62 g/ha: 62 g ai/ha; for plant injury at 125 g/ha: 125 g ai/ha
# Procedure, shortened: (§2)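 Sown seed (loam/sand soil) treated preemergence; emerged plants, 1- to 4-leaf stage and 2 to 18 cm, treated postemergence in peat/vermiculite medium. Greenhouse incubation 13–15 d. Endpoint: visual 0–100 rating versus untreated.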
# [2] = test system: johnsongrass (Sorghum halepense); test: Test D pre-/postemergence plant response; settings: Sorghum halepense; for pest or weed control at 16 g/ha: 16 g ai/ha; for pest or weed control at 31 g/ha: 31 g ai/ha; for pest or weed control at 62 g/ha: 62 g ai/ha; for pest or weed control at 125 g/ha: 125 g ai/ha
# Procedure, shortened: as §2
# [3] = test system: large (Lg) crabgrass (Digitaria sanguinalis); test: Test D pre-/postemergence plant response; settings: Digitaria sanguinalis; for pest or weed control at 16 g/ha: 16 g ai/ha; for pest or weed control at 31 g/ha: 31 g ai/ha; for pest or weed control at 62 g/ha: 62 g ai/ha; for pest or weed control at 125 g/ha: 125 g ai/ha
# Procedure, shortened: as §2
# [4] = test system: oilseed rape (Brassica napus); test: Test D pre-/postemergence plant response; settings: Brassica napus; for plant injury at 16 g/ha: 16 g ai/ha; for plant injury at 31 g/ha: 31 g ai/ha; for plant injury at 62 g/ha: 62 g ai/ha; for plant injury at 125 g/ha: 125 g ai/ha
# Procedure, shortened: as §2
# [5] = test system: yellow nutsedge (Cyperus esculentus); test: Test D pre-/postemergence plant response; settings: Cyperus; for pest or weed control at 16 g/ha: 16 g ai/ha; for pest or weed control at 31 g/ha: 31 g ai/ha; for pest or weed control at 62 g/ha: 62 g ai/ha; for pest or weed control at 125 g/ha: 125 g ai/ha
# Procedure, shortened: as §2
# [6] = test system: velvetleaf (Abutilon theophrasti); test: Test D pre-/postemergence plant response; settings: Abutilon theophrasti; for pest or weed control at 16 g/ha: 16 g ai/ha; for pest or weed control at 31 g/ha: 31 g ai/ha; for pest or weed control at 62 g/ha: 62 g ai/ha; for pest or weed control at 125 g/ha: 125 g ai/ha
# Procedure, shortened: as §2
# [7] = test system: winter wheat (Triticum aestivum); test: Test D pre-/postemergence plant response; settings: Triticum aestivum; for plant injury at 16 g/ha: 16 g ai/ha; for plant injury at 31 g/ha: 31 g ai/ha; for plant injury at 62 g/ha: 62 g ai/ha; for plant injury at 125 g/ha: 125 g ai/ha
# Procedure, shortened: as §2
# [8] = test system: ducksalad (Heteranthera limosa); test: Test C flooded paddy test plant response; settings: Heteranthera limosa; Flood, 250 g ai/ha; scale of 0 to 100 where 0 is no effect and 100 is complete control; 13 to 15 days; read-out: Ducksalad plant response rating
# Procedure, shortened: (§3)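 Water-applied treatment: compounds go directly into floodwater standing 3 cm over the soil of pots holding 2-leaf-stage plants. Depth is kept constant; plants stay in a greenhouse 13 to 15 days before visual comparison with controls on a 0–100 scale.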
# rice (Oryza sativa) = test: Test C flooded paddy test plant response; settings: Oryza sativa; Flood, 250 g ai/ha; scale of 0 to 100 where 0 is no effect and 100 is complete control; 13 to 15 days; read-out: Rice plant response rating
# Procedure, shortened: as §3
# [9] = test system: small-flower umbrella sedge (Cyperus difformis); test: Test C flooded paddy test plant response; settings: Cyperus difformis; Flood, 250 g ai/ha; scale of 0 to 100 where 0 is no effect and 100 is complete control; 13 to 15 days; read-out: Sedge, Umbrella plant response rating
# Procedure, shortened: as §3
# [10] = test system: barnyardgrass (Echinochloa crus-galli); test: Test C flooded paddy test plant response; settings: Echinochloa crus-galli; Flood, 250 g ai/ha; scale of 0 to 100 where 0 is no effect and 100 is complete control; 13 to 15 days; read-out: Barnyardgrass plant response rating
# Procedure, shortened: as §3
# [11] = post-emergence, Postemergence, scale 0 to 100 (0 no effect, 100 complete control), read-out: Soybean plant response rating
# [12] = post-emergence, Postemergence, scale 0 to 100, 0 no effect, 100 complete control, read-out: Plant response rating, Soybean
# [13] = pre-emergence, Preemergence, scale 0 to 100 (0 no effect, 100 complete control), read-out: Plant response rating, Soybean
# [14] = post-emergence, Postemergence, scale 0 to 100 (0 no effect, 100 complete control), read-out: Johnsongrass plant response rating
# [15] = post-emergence, Postemergence, scale 0 to 100, 0 no effect, 100 complete control, read-out: Plant response rating, Johnsongrass
# [16] = pre-emergence, Preemergence, scale 0 to 100 (0 no effect, 100 complete control), read-out: Plant response rating, Johnsongrass
# [17] = post-emergence, Postemergence, scale 0 to 100 (0 no effect, 100 complete control), read-out: Crabgrass, Large plant response rating
# [18] = post-emergence, Postemergence, scale 0 to 100, 0 no effect, 100 complete control, read-out: Plant response rating, Crabgrass, Large
# [19] = pre-emergence, Preemergence, scale 0 to 100 (0 no effect, 100 complete control), read-out: Plant response rating, Crabgrass, Large
# [20] = post-emergence, Postemergence, scale 0 to 100 (0 no effect, 100 complete control), read-out: Oilseed Rape plant response rating
# [21] = post-emergence, Postemergence, scale 0 to 100, 0 no effect, 100 complete control, read-out: Plant response rating, Oilseed Rape
# [22] = pre-emergence, Preemergence, scale 0 to 100 (0 no effect, 100 complete control), read-out: Plant response rating, Oilseed Rape
# [23] = post-emergence, Postemergence, scale 0 to 100 (0 no effect, 100 complete control), read-out: Nutsedge, Yellow plant response rating
# [24] = post-emergence, Postemergence, scale 0 to 100, 0 no effect, 100 complete control, read-out: Plant response rating, Nutsedge, Yellow
# [25] = pre-emergence, Preemergence, scale 0 to 100 (0 no effect, 100 complete control), read-out: Plant response rating, Nutsedge, Yellow
# [26] = post-emergence, Postemergence, scale 0 to 100 (0 no effect, 100 complete control), read-out: Velvetleaf plant response rating
# [27] = post-emergence, Postemergence, scale 0 to 100, 0 no effect, 100 complete control, read-out: Plant response rating, Velvetleaf
# [28] = pre-emergence, Preemergence, scale 0 to 100 (0 no effect, 100 complete control), read-out: Plant response rating, Velvetleaf
# [29] = post-emergence, Postemergence, scale 0 to 100 (0 no effect, 100 complete control), read-out: Wheat plant response rating
# [30] = post-emergence, Postemergence, scale 0 to 100, 0 no effect, 100 complete control, read-out: Plant response rating, Wheat
# [31] = pre-emergence, Preemergence, scale 0 to 100 (0 no effect, 100 complete control), read-out: Plant response rating, Wheat
smiles,measurement,setting,value
"FC(F)(F)c1cc(-c2ccccc2Oc2ncc(Cl)cn2)on1 [Compound 63, 5-chloro-2-[2-[3-(trifluoromethyl)-5-isoxazolyl]phenoxy]pyrimidine]",pest or weed control at 16 g/ha,"[1]; 16 g ai/ha, scale 0 to 100 (0 no effect, 100 complete control), read-out: Chickweed plant response rating",60%
same,pest or weed control at 31 g/ha,"[1]; 31 g ai/ha, scale 0 to 100 (0 no effect, 100 complete control), read-out: Chickweed plant response rating",65%
same,pest or weed control at 62 g/ha,"[1]; 62 g ai/ha, scale 0 to 100, 0 no effect, 100 complete control, read-out: Plant response rating, Chickweed",98%
same,pest or weed control at 125 g/ha,"[1]; 125 g ai/ha, scale 0 to 100, 0 no effect, 100 complete control, read-out: Plant response rating, Chickweed",100%
same,pest or weed control at 16 g/ha,"kochia (Kochia scoparia); 16 g ai/ha, scale 0 to 100 (0 no effect, 100 complete control), read-out: Kochia plant response rating",90%
same,pest or weed control at 31 g/ha,"kochia (Kochia scoparia); 31 g ai/ha, scale 0 to 100 (0 no effect, 100 complete control), read-out: Kochia plant response rating",95%
same,pest or weed control at 62 g/ha,"kochia (Kochia scoparia); 62 g ai/ha, scale 0 to 100, 0 no effect, 100 complete control, read-out: Plant response rating, Kochia",98%
same,pest or weed control at 125 g/ha,"kochia (Kochia scoparia); 125 g ai/ha, scale 0 to 100, 0 no effect, 100 complete control, read-out: Plant response rating, Kochia",100%
same,pest or weed control at 16 g/ha,"wild oat (Avena fatua); 16 g ai/ha, scale 0 to 100 (0 no effect, 100 complete control), read-out: Oat, Wild plant response rating",0%
same,pest or weed control at 31 g/ha,"wild oat (Avena fatua); 31 g ai/ha, scale 0 to 100 (0 no effect, 100 complete control), read-out: Oat, Wild plant response rating",20%
same,pest or weed control at 62 g/ha,"wild oat (Avena fatua); 62 g ai/ha, scale 0 to 100, 0 no effect, 100 complete control, read-out: Plant response rating, Oat, Wild",25%
same,pest or weed control at 125 g/ha,"wild oat (Avena fatua); 125 g ai/ha, scale 0 to 100, 0 no effect, 100 complete control, read-out: Plant response rating, Oat, Wild",35%
same,plant injury at 16 g/ha,soybean (Glycine max); [11],35%
same,plant injury at 31 g/ha,soybean (Glycine max); [11],45%
same,plant injury at 62 g/ha,soybean (Glycine max); [12],55%
same,plant injury at 125 g/ha,soybean (Glycine max); [12],98%
same,plant injury at 125 g/ha,"soybean (Glycine max); pre-emergence, Preemergence, read-out: Plant response rating (scale 0 to 100), Soybean",60%
same,plant injury at 16 g/ha,soybean (Glycine max); [13],5%
same,plant injury at 31 g/ha,soybean (Glycine max); [13],15%
same,plant injury at 62 g/ha,soybean (Glycine max); [13],45%
same,pest or weed control at 16 g/ha,[2]; [14],5%
same,pest or weed control at 31 g/ha,[2]; [14],5%
same,pest or weed control at 62 g/ha,[2]; [15],25%
same,pest or weed control at 125 g/ha,[2]; [15],45%
same,pest or weed control at 125 g/ha,"[2]; pre-emergence, Preemergence, read-out: Plant response rating (scale 0 to 100), Johnsongrass",85%
same,pest or weed control at 16 g/ha,[2]; [16],5%
same,pest or weed control at 31 g/ha,[2]; [16],35%
same,pest or weed control at 62 g/ha,[2]; [16],70%
same,pest or weed control at 16 g/ha,[3]; [17],5%
same,pest or weed control at 31 g/ha,[3]; [17],5%
same,pest or weed control at 62 g/ha,[3]; [18],10%
same,pest or weed control at 125 g/ha,[3]; [18],35%
same,pest or weed control at 125 g/ha,"[3]; pre-emergence, Preemergence, read-out: Plant response rating (scale 0 to 100), Crabgrass, Large",100%
same,pest or weed control at 16 g/ha,[3]; [19],65%
same,pest or weed control at 31 g/ha,[3]; [19],98%
same,pest or weed control at 62 g/ha,[3]; [19],98%
same,plant injury at 16 g/ha,[4]; [20],60%
same,plant injury at 31 g/ha,[4]; [20],90%
same,plant injury at 62 g/ha,[4]; [21],98%
same,plant injury at 125 g/ha,[4]; [21],100%
same,plant injury at 125 g/ha,"[4]; pre-emergence, Preemergence, read-out: Plant response rating (scale 0 to 100), Oilseed Rape",98%
same,plant injury at 16 g/ha,[4]; [22],70%
same,plant injury at 31 g/ha,[4]; [22],98%
same,plant injury at 62 g/ha,[4]; [22],98%
same,pest or weed control at 16 g/ha,[5]; [23],0%
same,pest or weed control at 31 g/ha,[5]; [23],0%
same,pest or weed control at 62 g/ha,[5]; [24],5%
same,pest or weed control at 125 g/ha,[5]; [24],5%
same,pest or weed control at 125 g/ha,"[5]; pre-emergence, Preemergence, read-out: Plant response rating (scale 0 to 100), Nutsedge, Yellow",5%
same,pest or weed control at 16 g/ha,[5]; [25],0%
same,pest or weed control at 31 g/ha,[5]; [25],0%
same,pest or weed control at 62 g/ha,[5]; [25],0%
same,pest or weed control at 16 g/ha,[6]; [26],10%
same,pest or weed control at 31 g/ha,[6]; [26],25%
same,pest or weed control at 62 g/ha,[6]; [27],40%
same,pest or weed control at 125 g/ha,[6]; [27],40%
same,pest or weed control at 125 g/ha,"[6]; pre-emergence, Preemergence, read-out: Plant response rating (scale 0 to 100), Velvetleaf",100%
same,pest or weed control at 16 g/ha,[6]; [28],40%
same,pest or weed control at 31 g/ha,[6]; [28],100%
same,pest or weed control at 62 g/ha,[6]; [28],100%
same,plant injury at 16 g/ha,[7]; [29],0%
same,plant injury at 31 g/ha,[7]; [29],0%
same,plant injury at 62 g/ha,[7]; [30],5%
same,plant injury at 125 g/ha,[7]; [30],5%
same,plant injury at 125 g/ha,"[7]; pre-emergence, Preemergence, read-out: Plant response rating (scale 0 to 100), Wheat",45%
same,plant injury at 16 g/ha,[7]; [31],0%
same,plant injury at 31 g/ha,[7]; [31],0%
same,plant injury at 62 g/ha,[7]; [31],10%
same,pest or weed control at 250 g/ha,[8],100%
same,plant injury at 250 g/ha,rice (Oryza sativa),25%
same,pest or weed control at 250 g/ha,[9],85%
same,pest or weed control at 250 g/ha,[10],60%
